Laboratory results as given in US8415469B2, “Compounds and methods for kinase modulation, and indications therefor” (Plexxikon Inc., priority 2005, dated 2013).

Assays:
Format in all cases: biochemical
B-Raf = target: T1, B-Raf (Homo sapiens, UniProt P15056); test: AlphaScreen kinase assay, B-Raf; details: read-out: IC50, activity toward kinase B-Raf
T1 construct: purchased Upstate Biotechnology

B-Raf V600E = target: T2, B-Raf V600E (Homo sapiens, UniProt P15056, V600E); test: AlphaScreen kinase assay, B-Raf V600E; details: read-out: IC50, activity toward kinase B-Raf V600E
T2 construct: P4254. pFastBacBD-CDC37 BRAF D437-K722-X, V600E; His6 with pFastBac HT leader (TEV site) (N); made in house; host or cells: Sf9 (baculovirus; chaperone CDC37 co-expressed)
T2 sequence (P15056 with tags, fused parts or gaps V600E): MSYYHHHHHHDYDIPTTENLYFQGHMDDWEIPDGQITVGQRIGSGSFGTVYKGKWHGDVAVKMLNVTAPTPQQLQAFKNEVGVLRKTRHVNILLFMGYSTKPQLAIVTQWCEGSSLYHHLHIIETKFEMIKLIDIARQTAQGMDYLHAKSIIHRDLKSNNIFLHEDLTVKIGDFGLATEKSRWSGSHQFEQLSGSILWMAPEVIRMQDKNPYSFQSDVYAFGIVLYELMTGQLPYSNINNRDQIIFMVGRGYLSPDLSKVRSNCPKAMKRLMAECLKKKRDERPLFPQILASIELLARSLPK

c-Raf-1 = target: T3, c-Raf-1 (Homo sapiens, UniProt P04049); test: AlphaScreen kinase assay, c-Raf-1; details: read-out: IC50, activity toward kinase c-Raf-1
T3 construct: purchased Upstate Biotechnology
T3 sequence (P04049 whole entry): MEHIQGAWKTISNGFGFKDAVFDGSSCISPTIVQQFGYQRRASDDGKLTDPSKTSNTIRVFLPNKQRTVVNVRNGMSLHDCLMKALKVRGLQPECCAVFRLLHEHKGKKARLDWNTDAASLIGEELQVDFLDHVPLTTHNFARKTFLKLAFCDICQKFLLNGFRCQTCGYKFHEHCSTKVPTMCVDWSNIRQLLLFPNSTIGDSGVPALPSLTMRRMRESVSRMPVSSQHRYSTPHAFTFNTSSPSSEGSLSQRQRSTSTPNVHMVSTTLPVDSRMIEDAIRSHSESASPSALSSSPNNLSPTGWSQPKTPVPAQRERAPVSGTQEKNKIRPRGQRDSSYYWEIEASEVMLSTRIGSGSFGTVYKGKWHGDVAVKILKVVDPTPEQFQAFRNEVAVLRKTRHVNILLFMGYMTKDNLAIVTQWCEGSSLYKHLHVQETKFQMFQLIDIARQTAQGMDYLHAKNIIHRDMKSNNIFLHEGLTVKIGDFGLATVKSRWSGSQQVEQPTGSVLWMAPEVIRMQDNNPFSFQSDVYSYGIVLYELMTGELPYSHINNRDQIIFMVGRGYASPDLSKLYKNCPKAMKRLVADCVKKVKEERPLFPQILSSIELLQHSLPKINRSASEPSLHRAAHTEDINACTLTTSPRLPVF

FGFR1 = target: T4, FGFR1 (Homo sapiens, UniProt P11362, C488A/C584S); test: AlphaScreen kinase assay, FGFR1; details: read-out: IC50, activity toward kinase FGFR
T4 construct: P1351.pET N6 BI-PTP FGFR A458-E765-X C488A, C584S; made in house; host or cells: E. coli (PTP1B co-expressed)
T4 sequence (P11362 458-765 C488A/C584S): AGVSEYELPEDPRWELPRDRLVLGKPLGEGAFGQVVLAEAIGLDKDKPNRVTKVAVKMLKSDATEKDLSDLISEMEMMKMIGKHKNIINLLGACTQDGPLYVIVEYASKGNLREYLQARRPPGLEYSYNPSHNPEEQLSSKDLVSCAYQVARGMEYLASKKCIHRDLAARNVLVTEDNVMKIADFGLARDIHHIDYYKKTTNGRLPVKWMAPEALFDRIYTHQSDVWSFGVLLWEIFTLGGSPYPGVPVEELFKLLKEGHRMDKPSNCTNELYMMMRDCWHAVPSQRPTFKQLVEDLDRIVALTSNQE

Fms = target: T5, Fms (Homo sapiens, UniProt P07333); test: AlphaScreen kinase assay, Fms; details: read-out: IC50, activity toward kinase Fms
T5 construct: purchased Upstate Biotechnology
T5 sequence (P07333 20-972): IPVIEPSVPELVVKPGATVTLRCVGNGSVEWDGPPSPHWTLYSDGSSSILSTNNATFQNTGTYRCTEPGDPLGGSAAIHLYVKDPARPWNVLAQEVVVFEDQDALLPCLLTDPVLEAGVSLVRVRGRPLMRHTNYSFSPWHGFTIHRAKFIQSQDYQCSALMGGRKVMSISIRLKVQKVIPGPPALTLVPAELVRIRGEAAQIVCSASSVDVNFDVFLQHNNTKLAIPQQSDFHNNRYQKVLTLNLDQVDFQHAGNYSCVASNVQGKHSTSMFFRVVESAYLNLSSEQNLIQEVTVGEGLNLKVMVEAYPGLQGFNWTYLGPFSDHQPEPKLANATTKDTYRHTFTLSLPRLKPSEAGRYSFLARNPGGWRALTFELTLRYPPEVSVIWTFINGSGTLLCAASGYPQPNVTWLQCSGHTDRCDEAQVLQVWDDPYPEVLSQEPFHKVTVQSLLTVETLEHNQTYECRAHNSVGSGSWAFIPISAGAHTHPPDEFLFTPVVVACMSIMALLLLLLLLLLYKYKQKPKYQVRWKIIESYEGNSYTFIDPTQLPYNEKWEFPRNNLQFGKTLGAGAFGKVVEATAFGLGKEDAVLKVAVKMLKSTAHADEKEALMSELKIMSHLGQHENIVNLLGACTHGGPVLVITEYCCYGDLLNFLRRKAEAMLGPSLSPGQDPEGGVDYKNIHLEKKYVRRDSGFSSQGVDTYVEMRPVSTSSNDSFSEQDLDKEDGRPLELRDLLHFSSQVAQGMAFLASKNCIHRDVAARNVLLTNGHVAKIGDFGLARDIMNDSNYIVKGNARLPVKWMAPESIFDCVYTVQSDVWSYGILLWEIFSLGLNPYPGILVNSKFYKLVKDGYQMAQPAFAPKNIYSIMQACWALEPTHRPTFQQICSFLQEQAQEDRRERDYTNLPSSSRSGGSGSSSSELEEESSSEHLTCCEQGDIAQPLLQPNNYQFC

Kit = target: T6, Kit (Homo sapiens, UniProt P10721); test: AlphaScreen kinase assay, Kit; details: read-out: IC50, activity toward kinase Kit
T6 construct: P1332.N6 BI PTP KIT M552-K948-X COD; His6 (N); made in house; host or cells: E. coli (PTP1B co-expressed)
T6 sequence (P10721 with tags, fused parts or gaps): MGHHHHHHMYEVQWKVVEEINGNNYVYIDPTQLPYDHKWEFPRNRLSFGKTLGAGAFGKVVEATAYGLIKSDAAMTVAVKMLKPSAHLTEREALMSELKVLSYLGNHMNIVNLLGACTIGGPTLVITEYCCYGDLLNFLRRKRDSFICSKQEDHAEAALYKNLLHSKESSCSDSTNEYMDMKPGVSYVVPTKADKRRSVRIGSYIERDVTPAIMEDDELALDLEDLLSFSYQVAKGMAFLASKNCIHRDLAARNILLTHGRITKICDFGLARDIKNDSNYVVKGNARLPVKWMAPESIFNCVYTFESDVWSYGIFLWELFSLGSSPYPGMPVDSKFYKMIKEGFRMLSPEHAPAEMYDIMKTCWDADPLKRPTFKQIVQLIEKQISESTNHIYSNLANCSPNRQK

Ret = target: T7, Ret (Homo sapiens, UniProt P07949); test: AlphaScreen kinase assay, Ret; details: read-out: IC50, activity toward kinase Ret
T7 construct: P1378.pET-SF BI-PTP RET H661-R1012 HIS; made in house
T7 sequence (P07949 with tags, fused parts or gaps): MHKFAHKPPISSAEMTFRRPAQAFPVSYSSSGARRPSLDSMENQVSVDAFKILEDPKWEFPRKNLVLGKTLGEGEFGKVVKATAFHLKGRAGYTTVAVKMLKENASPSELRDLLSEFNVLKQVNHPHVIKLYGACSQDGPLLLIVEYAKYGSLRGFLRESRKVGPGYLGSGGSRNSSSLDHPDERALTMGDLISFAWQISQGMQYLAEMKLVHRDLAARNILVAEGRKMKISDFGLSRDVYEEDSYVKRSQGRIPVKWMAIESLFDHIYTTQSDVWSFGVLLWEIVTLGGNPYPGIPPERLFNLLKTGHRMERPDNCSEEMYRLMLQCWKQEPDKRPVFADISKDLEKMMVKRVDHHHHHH

Flt1 = target: T8, Flt1 (Homo sapiens, UniProt P17948); test: AlphaScreen kinase assay, Flt1; details: read-out: IC50, activity toward kinase Flt1
T8 construct: P1826.pETN6 BI-PTP FLT1 M799-D1165-X WT; His6 (N); made in house; host or cells: E. coli (PTP1B co-expressed)
T8 sequence (P17948 with tags, fused parts or gaps): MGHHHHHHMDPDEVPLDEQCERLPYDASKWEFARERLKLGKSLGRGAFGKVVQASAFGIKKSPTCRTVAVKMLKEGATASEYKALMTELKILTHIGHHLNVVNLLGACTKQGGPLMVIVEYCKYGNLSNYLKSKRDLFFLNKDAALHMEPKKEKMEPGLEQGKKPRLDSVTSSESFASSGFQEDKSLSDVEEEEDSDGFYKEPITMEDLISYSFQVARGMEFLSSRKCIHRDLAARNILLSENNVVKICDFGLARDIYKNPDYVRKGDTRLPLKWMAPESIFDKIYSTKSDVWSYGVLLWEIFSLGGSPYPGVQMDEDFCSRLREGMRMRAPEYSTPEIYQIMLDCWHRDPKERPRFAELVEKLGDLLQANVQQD

Measured: IC50

T1 sequence (P15056 whole entry): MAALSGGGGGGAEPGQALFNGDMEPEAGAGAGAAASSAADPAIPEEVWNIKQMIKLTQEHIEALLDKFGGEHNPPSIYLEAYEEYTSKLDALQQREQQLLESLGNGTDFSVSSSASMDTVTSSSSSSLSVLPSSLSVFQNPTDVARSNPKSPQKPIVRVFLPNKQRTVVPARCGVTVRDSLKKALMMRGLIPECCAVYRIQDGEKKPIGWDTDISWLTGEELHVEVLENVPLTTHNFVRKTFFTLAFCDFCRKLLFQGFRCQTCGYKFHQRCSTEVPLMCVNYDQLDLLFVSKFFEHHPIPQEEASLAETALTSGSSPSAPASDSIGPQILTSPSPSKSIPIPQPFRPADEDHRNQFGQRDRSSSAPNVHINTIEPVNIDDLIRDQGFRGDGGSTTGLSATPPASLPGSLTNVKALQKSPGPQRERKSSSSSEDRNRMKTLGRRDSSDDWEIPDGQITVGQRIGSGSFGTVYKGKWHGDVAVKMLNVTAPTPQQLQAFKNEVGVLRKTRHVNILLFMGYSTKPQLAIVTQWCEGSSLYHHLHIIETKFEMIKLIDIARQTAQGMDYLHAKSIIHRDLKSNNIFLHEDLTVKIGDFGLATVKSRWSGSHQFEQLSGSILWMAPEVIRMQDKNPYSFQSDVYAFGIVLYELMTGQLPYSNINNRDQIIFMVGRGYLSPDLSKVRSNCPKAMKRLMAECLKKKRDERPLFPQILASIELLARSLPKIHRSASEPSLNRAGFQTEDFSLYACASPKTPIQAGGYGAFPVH

COc1cc(Cc2c[nH]c3ncc(-c4ccsc4)cc23)cc(OC)c1 [Compound P-0613]
not listed: Ret | Flt1
≤ 10 µM: all other assays above

O=C(c1c(F)ccc(NS(=O)(=O)c2ccccc2)c1F)c1c[nH]c2ncc(Br)cc12 [Compound P-0798, N-[3-(5-Bromo-1H-pyrrolo[2,3-b]pyridine-3-carbonyl)-2,4-difluoro-phenyl]-benzenesulfonamide]
not listed: Ret | Flt1
≤ 10 µM: all other assays above

CS(=O)(=O)Nc1ccc(Cl)c(C(=O)c2c[nH]c3ncc(-c4cccc(S(C)(=O)=O)c4)cc23)c1F [Compound P-0841, N-{4-Chloro-2-fluoro-3-[5-(3-methanesulfonyl-phenyl)-1H-pyrrolo[2,3-b]pyridine-3-carbonyl]-phenyl}-methanesulfonamide]
≤ 10 µM: B-Raf | B-Raf V600E | c-Raf-1 | FGFR1 | Ret

CS(=O)(=O)Nc1ccc(Cl)c(C(=O)c2c[nH]c3ncc(Br)cc23)c1F [Compound P-0868, N-[3-(5-Bromo-1H-pyrrolo[2,3-b]pyridine-3-carbonyl)-4-chloro-2-fluoro-phenyl]-methanesulfonamide]
≤ 10 µM: B-Raf | B-Raf V600E | c-Raf-1 | FGFR1 | Flt1

COC(c1ccc(NCc2ccc(Cl)cc2)nc1)c1c[nH]c2ncc(-c3cccnc3)cc12 (stereo not drawn) [Compound P-0939]
≤ 10 µM: B-Raf | B-Raf V600E | c-Raf-1 | Ret

COC(c1ccc(NCc2ccc(Cl)cc2)nc1)c1c[nH]c2ncc(-c3cccc(S(C)(=O)=O)c3)cc12 (stereo not drawn) [Compound P-0998]
≤ 10 µM: B-Raf | B-Raf V600E | c-Raf-1 | Ret

CCCS(=O)(=O)Nc1ccc(F)c(C(=O)c2c[nH]c3ncc(N4CCN(C)CC4)cc23)c1F [Compound P-1246, propane-1-sulfonic acid {2,4-difluoro-3-[5-(4-methyl-piperazin-1-yl)-1H-pyrrolo[2,3-b]pyridine-3-carbonyl]-phenyl}-amide]
not listed: Ret
≤ 10 µM: all other assays above

COc1ccc(F)c(C(=O)c2c[nH]c3ncc(Br)cc23)c1F [Compound P-1386, (5-Bromo-1H-pyrrolo[2,3-b]pyridin-3-yl)-(2,6-difluoro-3-methoxy-phenyl)-methanone]
not listed: Ret | Flt1
≤ 10 µM: all other assays above

O=C(c1c(Cl)ccc(OCC(F)(F)F)c1F)c1c[nH]c2ncc(-c3cccnc3)cc12 [Compound P-1395, [6-Chloro-2-fluoro-3-(2,2,2-trifluoro-ethoxy)-phenyl]-(5-pyridin-3-yl-1H-pyrrolo[2,3-b]pyridin-3-yl)-methanone]
not listed: Ret
≤ 10 µM: all other assays above

CC(=O)Nc1cccc(-c2cnc3[nH]cc(C(=O)c4cccc(C(F)(F)F)c4)c3c2)c1 [Compound P-1419, N-{3-[3-(3-Trifluoromethyl-benzoyl)-1H-pyrrolo[2,3-b]pyridin-5-yl]-phenyl}-acetamide]
not listed: Ret | Flt1
≤ 10 µM: all other assays above

O=C(c1c(F)ccc(NS(=O)(=O)c2ccc(C(F)(F)F)cc2)c1F)c1c[nH]c2ncc(Cl)cc12 [Compound P-1541, N-[3-(5-Chloro-1H-pyrrolo[2,3-b]pyridine-3-carbonyl)-2,4-difluoro-phenyl]-4-trifluoromethyl-benzenesulfonamide]
not listed: FGFR1 | Ret
≤ 10 µM: all other assays above

O=C(Nc1cccc(C(=O)c2c[nH]c3ncc(Cl)cc23)c1)Nc1cccc(C(F)(F)F)c1F [Compound P-1740, 1-[3-(5-Chloro-1H-pyrrolo[2 3-b]pyridine-3-carbonyl)-phenyl]-3-(2-fluoro-3-trifluoromethyl-phenyl)-urea]
≤ 10 µM: B-Raf | B-Raf V600E | c-Raf-1 | Fms | Kit

CCc1cnc2[nH]cc(C(=O)c3c(F)ccc(NS(=O)(=O)c4ccc(C(F)(F)F)cc4)c3F)c2c1 [Compound P-1783, N-[3-(5-Ethyl-1H-pyrrolo[2,3-b]pyridine-3-carbonyl)-2,4-difluoro-phenyl]-4-trifluoromethyl-benzenesulfonamide]
≤ 10 µM: B-Raf | B-Raf V600E | c-Raf-1 | Fms | Kit

COCCOc1cnc2[nH]cc(C(=O)c3c(F)ccc(NS(=O)(=O)c4cccc(F)c4)c3F)c2c1 [Compound P-1871, N-{2,4-Difluoro-3-[5-(2-methoxy-ethoxy)-1H-pyrrolo[2,3-b]pyridine-3-carbonyl]-phenyl}-3-fluoro-benzenesulfonamide]
≤ 10 µM: B-Raf | B-Raf V600E | c-Raf-1 | Fms | Kit

CCCS(=O)(=O)Nc1ccc(F)c(C(=O)c2c[nH]c3ncc(-c4ccc(N5CCOCC5)nc4)cc23)c1F [Compound P-1881, Propane-1-sulfonic acid {2,4-difluoro-3-[5-(6-morpholin-4-yl-pyridin-3-yl)-1H-pyrrolo[2,3-b]pyridine-3-carbonyl]-phenyl}-amide]
≤ 10 µM: B-Raf | B-Raf V600E | c-Raf-1 | Fms | Kit

CCCS(=O)(=O)Nc1ccc(F)c(C(=O)c2c[nH]c3ncc(-c4ccc(N5CCN(C)CC5)nc4)cc23)c1F [Compound P-1882, Propane-1-sulfonic acid (2,4-difluoro-3-{5-[6-(4-methyl-piperazine-1-yl)-pyridin-3-yl]-1H-pyrrolo[2,3-b]pyridine-3-carbonyl}-phenyl)-amide]
≤ 10 µM: B-Raf | B-Raf V600E | c-Raf-1 | Fms | Kit
